# Test results reported in patent US8426408B2, “Pyrimidine inhibitors of kinases” (AbbVie Inc., priority 2009, dated 2013).
# Columns and labels:
# KDR [1] = target: T1, KDR (Homo sapiens, UniProt P35968); assay: KDR HTRF in vitro kinase assay; format: biochemical; set-up: purified enzyme (His6-KDR 789-1354, MW 63 kD); His6 (N); settings: 1 mM ATP; read-out: KDR enzyme inhibition data (Ki)
# Method in brief: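 His6-KDR 789-1354 (7 ng/well) with 0.5 μM biotinylated peptide substrate and 1 mM ATP in HEPES pH 7.1, MgCl2/MnCl2, 60 min at room temperature. EDTA-quenched, detected by streptavidin-XL-665 plus Eu-kryptate anti-phosphotyrosine HTRF after 3 h; IC50 from 620/665 nm ratio.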
# Target sequence in this assay (P35968 789-1354): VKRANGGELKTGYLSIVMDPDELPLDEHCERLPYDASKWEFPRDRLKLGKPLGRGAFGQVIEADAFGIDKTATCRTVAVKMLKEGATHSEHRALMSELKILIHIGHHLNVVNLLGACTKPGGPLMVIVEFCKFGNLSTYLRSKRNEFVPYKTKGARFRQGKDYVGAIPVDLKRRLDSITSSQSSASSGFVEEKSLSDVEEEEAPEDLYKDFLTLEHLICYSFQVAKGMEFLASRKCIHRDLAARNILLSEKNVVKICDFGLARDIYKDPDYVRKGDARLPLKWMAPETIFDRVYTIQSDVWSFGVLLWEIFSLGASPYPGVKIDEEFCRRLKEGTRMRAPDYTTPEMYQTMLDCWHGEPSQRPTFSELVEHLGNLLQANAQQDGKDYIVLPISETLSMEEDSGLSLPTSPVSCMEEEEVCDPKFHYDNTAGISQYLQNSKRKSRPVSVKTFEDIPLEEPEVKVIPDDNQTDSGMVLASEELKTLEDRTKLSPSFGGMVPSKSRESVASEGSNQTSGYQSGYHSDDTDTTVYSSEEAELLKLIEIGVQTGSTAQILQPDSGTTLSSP
# Aurora A = target: T2, Aurora A (Homo sapiens, UniProt O14965); assay: Aurora A enzyme inhibition (time-resolved fluorescence, STK substrate-2); format: biochemical; settings: 1 mM ATP
# T2 sequence (O14965 1-403): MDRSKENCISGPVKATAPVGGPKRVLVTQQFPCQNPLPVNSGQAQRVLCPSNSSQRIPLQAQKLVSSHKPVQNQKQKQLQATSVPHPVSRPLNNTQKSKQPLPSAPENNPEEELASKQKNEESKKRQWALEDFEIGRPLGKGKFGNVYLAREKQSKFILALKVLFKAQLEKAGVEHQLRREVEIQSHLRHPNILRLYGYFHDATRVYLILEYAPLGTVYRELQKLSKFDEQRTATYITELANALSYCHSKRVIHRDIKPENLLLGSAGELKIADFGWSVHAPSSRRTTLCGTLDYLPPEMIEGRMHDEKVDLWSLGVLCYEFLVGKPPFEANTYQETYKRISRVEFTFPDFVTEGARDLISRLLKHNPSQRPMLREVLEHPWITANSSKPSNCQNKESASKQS
# Method in brief: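 Active enzyme incubated 1 h with biotinylated STK substrate-2, 1 mM ATP and inhibitor in Hepes pH 7.4 with MgCl2, orthovanadate and Triton X-100. EDTA stop; phosphopeptide detected by Eu-cryptate anti-phospho-STK/SA-XL665 TR-FRET (665/615 nm ratio); IC50 by exponential fit.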
# Aurora B = target: T3, Aurora B (Homo sapiens, UniProt Q96GD4); assay: Aurora B enzyme inhibition (time-resolved fluorescence, histone H3 peptide); format: biochemical; settings: 1 mM ATP
# T3 construct: Active Aurora B enzyme (recombinant residues 1-344)
# Method in brief: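 Recombinant Aurora B (residues 1-344) with GST-INCENP phosphorylated biotinylated histone H3 (1-21) peptide at 1 mM ATP in HEPES pH 7.4 with MgCl2, orthovanadate and Triton X-100 for 1 h. After EDTA stop, the phosphopeptide was detected by TR-FRET (Eu-cryptate anti-phospho-H3 / SA-APC, 665/615 nm ratio). IC50 from an exponential fit.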
# KDR [2] = target: T1, KDR; assay: KDR cellular assay (KDR receptor phosphorylation ELISA); format: cell-based; set-up: expressed in transfected cells; host or cells: 3T3 (embryonic mouse) cells; settings: KDR transfected 3T3 (embryonic mouse) cells, VEGF stimulated; read-out: IC50 inhibition of KDR phosphorylation
# Procedure: The ability of compounds to inhibit KDR receptor phosphorylation in cells was measured by ELISA following the protocol outlined below.
# KDR transfected 3T3 (embryonic mouse) cells added to 96-well tissue culture plates at 20,000 cells/well.
# Plates were covered and placed in a 37° C. humidified incubator with 5% CO2 overnight, to allow cells to adhere.
# Coating solution was prepared: 500 l/vial PBS was added to 2 vials of anti-KDR antibody, then 1 ml solubilized anti-KDR antibody into 29.0 ml bicarbonate buffer. Coating solution was added to all wells at 150 µl/well (final amount anti-KDR=1 µg/well) and placed at 4° C. overnight.
# Blocking solution (2.1 g dry milk+42 ml PBS=5% milk in PBS) was placed on a stir plate for 30 min.
# Assay plates were washed twice with PBST, and 200 µl/well blocking solution was added to all wells. Assay plates were covered with plate sealers and placed in a 37° C. microplate chamber until just before cell lysate transfer.
# Compound stocks were thawed or prepared in DMSO as 5 mM stocks.
# Dilution medium (DM, 1% DMSO in DMEM) and compounds were diluted by half-log increments for concentration response analysis.
# Conditioned media was dumped from the tissue culture plates, and plates were blotted dry.
# Standard solution in DM, compound dilutions in DM, or DM (for high control, negative control, and reference wells) were added to the tissue culture plates, 25 µl/well. Each pair of tissue culture plates was prepared with the same compounds, solutions, and layout; and will be combined later; Tissue culture plates were covered and placed in the 37° C. microplate chamber for 20 min.
# VEGF solution was prepared: 110 l VEGF stock+10.89 ml DM=100 ng/ml VEGF
# VEGF solution or DM (for reference wells) was added to the tissue culture plates, 25 μl/well.
# Tissue culture plates were covered and placed in the 37° C. microplate chamber for 10 min.
# RIPA buffer was prepared (240 l NaVO3 stock+240 l PIC stock+24 l NaF stock+23.496 ml RIPA base) and added to the tissue culture plates, 50 µl/well.
# Tissue culture plates were covered and placed on a Labline plate shaker for 10 min (speed about 5).
# Assay plates were washed twice with PBST.
# Cell lysates from matching wells of each pair of tissue culture plates were combined to =200 µl/well, and were pipetted up and down to mix. Cell lysates were transferred to the assay plates using the same layouts, 170 µl/well.
# Assay plates were covered with plate sealers and placed on a Labline plate shaker for 2 hr (speed about 5).
# Assay plates were washed 5 times with PBST.
# Biotin antibody solution was prepared (16 l biotin antibody stock+32 ml PBST=2000× dilution) and added to the assay plates, 150 µl/well.
# Assay plates were covered with plate sealers and placed on a Labline plate shaker for 90 min
# Streptavidin-HRP solution was prepared (16 l streptavidin-HRP stock+32 ml PBST=2000× dilution) and added to the assay plates, 150 µl/well.
# Assay plates were covered with plate sealers and placed on a Labline plate shaker for 60 min
# Substrate was added to the assay plates, 100 µl/well.
# As assay plates developed, the plates were each monitored on a Molecular Devices Spectramax set to 650 nm, until the signal in the high control wells was around 0.6 OD and the signal in the negative control wells was around 0.1-0.15 OD.
# Stop solution was added to the assay plates, 100 µl/well.
# The plates were read on a Molecular Devices Spectramax set to 450 nm.
# Data was calculated by Assay Explorer, using same-plate high control wells as 0% and reference standard wells as 100% inhibition of KDR phosphorylation. IC50 values were calculated by non-linear regression analysis of the concentration response data.
# Target sequence in this assay (P35968 20-1356): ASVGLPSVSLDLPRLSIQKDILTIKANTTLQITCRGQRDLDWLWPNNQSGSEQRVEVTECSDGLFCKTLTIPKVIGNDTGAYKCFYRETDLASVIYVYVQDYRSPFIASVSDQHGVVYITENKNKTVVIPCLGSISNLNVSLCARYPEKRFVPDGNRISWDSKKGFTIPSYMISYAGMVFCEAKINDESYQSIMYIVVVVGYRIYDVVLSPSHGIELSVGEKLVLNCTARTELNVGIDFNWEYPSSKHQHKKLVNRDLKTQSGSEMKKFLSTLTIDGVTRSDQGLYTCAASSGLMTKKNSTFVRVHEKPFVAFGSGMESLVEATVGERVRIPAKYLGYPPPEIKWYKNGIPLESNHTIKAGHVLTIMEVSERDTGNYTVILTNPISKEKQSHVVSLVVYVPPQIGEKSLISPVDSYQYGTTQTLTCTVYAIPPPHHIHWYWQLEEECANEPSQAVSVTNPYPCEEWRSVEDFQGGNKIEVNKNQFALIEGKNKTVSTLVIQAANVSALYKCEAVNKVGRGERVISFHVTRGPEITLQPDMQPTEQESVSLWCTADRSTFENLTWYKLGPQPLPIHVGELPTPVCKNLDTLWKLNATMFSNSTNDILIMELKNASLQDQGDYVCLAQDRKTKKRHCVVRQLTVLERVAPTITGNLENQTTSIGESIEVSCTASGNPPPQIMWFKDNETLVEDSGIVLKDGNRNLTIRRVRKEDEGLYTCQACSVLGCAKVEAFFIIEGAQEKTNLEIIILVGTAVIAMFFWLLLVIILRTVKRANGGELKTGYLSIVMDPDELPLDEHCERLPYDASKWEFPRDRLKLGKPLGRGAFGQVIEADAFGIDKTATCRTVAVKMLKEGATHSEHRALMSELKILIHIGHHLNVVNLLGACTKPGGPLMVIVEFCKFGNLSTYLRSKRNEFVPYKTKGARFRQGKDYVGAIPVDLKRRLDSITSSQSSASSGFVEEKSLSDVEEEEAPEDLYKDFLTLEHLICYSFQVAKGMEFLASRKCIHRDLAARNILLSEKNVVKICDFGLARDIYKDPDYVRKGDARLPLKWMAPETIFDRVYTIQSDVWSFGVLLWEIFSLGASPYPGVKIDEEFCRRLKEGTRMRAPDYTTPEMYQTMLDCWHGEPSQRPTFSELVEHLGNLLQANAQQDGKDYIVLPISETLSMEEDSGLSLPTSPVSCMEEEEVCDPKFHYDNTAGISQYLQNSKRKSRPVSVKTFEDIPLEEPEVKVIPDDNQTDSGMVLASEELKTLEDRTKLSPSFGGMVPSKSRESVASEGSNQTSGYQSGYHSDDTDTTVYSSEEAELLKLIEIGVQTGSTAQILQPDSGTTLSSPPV
# T3 sequence (Q96GD4 whole entry, the tested form may be a part): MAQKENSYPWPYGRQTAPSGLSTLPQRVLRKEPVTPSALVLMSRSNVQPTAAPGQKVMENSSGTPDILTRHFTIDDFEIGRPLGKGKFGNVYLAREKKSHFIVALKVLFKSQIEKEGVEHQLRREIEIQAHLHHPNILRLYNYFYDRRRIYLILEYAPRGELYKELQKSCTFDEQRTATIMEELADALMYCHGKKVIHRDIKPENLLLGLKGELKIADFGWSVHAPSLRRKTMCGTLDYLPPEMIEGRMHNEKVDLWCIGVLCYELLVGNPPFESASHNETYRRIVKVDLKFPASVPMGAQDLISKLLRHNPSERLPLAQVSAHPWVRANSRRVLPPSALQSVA
# T3 sequence (Q9NQS7 826-918 partner limits assumed): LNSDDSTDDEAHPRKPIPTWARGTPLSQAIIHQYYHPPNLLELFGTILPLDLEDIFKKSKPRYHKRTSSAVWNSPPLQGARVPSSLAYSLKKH
Ki (KDR [1]) [nM],Ki (Aurora A) [nM],Ki (Aurora B) [nM],IC50 (KDR [2]) [nM],Molecule
< 100,< 100,< 100,100 to 1000,"5-chloro-N^2-(1H-indazol-5-yl)-N^2-{1-[(3R)-pyrrolidin-3-yl]-1H-pyrazol-4-yl}pyrimidine-2,4-diamine [Example 181]"
< 100,< 100,< 100,< 100,"Cn1cc(Nc2ncc(Br)c(N[C@@H]3[C@H](C(N)=O)[C@H]4C=C[C@@H]3C4)n2)cn1.Cn1cc(Nc2ncc(Br)c(N[C@H]3[C@@H](C(N)=O)[C@@H]4C=C[C@H]3C4)n2)cn1 (mixture of isomers) [Example 28, (1S,2S,3R,4R)-3-({5-bromo-2-[(1-methyl-1H-pyrazol-4-yl)amino]pyrimidin-4-yl}amino)bicyclo[2.2.1]hept-5-ene-2-carboxamide and (1R,2R,3S,4S)-3-({5-bromo-2-[(1-methyl-1H-pyrazol-4-yl)amino]pyrimidin-4-yl}amino)bicyclo[2.2.1]hept-5-ene-2-carboxamide]"
< 100,< 100,100 to 1000,100 to 1000,"NC(=O)[C@@H]1[C@H](Nc2nc(Nc3cnn(CCO)c3)ncc2C(F)(F)F)[C@H]2C=C[C@@H]1C2.NC(=O)[C@H]1[C@@H](Nc2nc(Nc3cnn(CCO)c3)ncc2C(F)(F)F)[C@@H]2C=C[C@H]1C2 (mixture of isomers) [Example 29, (1S,2S,3R,4R)-3-{[2-{[1-(2-hydroxyethyl)-1H-pyrazol-4-yl]amino}-5-(trifluoromethyl)pyrimidin-4-yl]amino}bicyclo[2.2.1]hept-5-ene-2-carboxamide and (1R,2R,3S,4S)-3-{[2-{[1-(2-hydroxyethyl)-1H-pyrazol-4-yl]amino}-5-(trifluoromethyl)pyrimidin-4-yl]amino}bicyclo[2.2.1]hept-5-ene-2-carboxamide]"
100 to 1000,< 100,< 100,100 to 1000,"Cn1cc(Nc2ncc(C(N)=O)c(NC3C4C=CC(C4)C3C(N)=O)n2)cn1 (mixture of isomers) [Example 86, 4-{[(1S,2S,3R,4R)-3-carbamoylbicyclo[2.2.1]hept-5-ene-2-yl]amino}-2-[(1-methyl-1H-pyrazol-4-yl)amino]pyrimidine-5-carboxamide and 4-{[(1R,2R,3S,4S)-3-carbamoylbicyclo[2.2.1]hept-5-ene-2-yl]amino}-2-[(1-methyl-1H-pyrazol-4-yl)amino]pyrimidine-5-carboxamide]"
< 100,< 100,< 100,100 to 1000,"CCn1cc(Nc2ncc(C(N)=O)c(NC3C4C=CC(C4)C3C(N)=O)n2)cn1 (mixture of isomers) [Example 87, 4-{[(1S,2S,3R,4R)-3-carbamoylbicyclo[2.2.1]hept-5-ene-2-yl]amino}-2-[(1-ethyl-1H-pyrazol-4-yl)amino]pyrimidine-5-carboxamide and 4-{[(1R,2R,3S,4S)-3-carbamoylbicyclo[2.2.1]hept-5-ene-2-yl]amino}-2-[(1-ethyl-1H-pyrazol-4-yl)amino]pyrimidine-5-carboxamide]"
100 to 1000,100 to 1000,< 100,100 to 1000,"Cc1nc(Nc2cnn(C)c2)nc(N[C@@H]2[C@H](C(N)=O)[C@H]3C=C[C@@H]2C3)c1Cl.Cc1nc(Nc2cnn(C)c2)nc(N[C@H]2[C@@H](C(N)=O)[C@@H]3C=C[C@H]2C3)c1Cl (mixture of isomers) [Example 125, (1S,2S,3R,4R)-3-({5-chloro-6-methyl-2-[(1-methyl-1H-pyrazol-4-yl)amino]pyrimidin-4-yl}amino)bicyclo[2.2.1]hept-5-ene-2-carboxamide and (1R,2R,3S,4S)-3-({5-chloro-6-methyl-2-[(1-methyl-1H-pyrazol-4-yl)amino]pyrimidin-4-yl}amino)bicyclo[2.2.1]hept-5-ene-2-carboxamide]"
100 to 1000,< 100,< 100,100 to 1000,"CCn1cc(Nc2nc(C)c(Cl)c(N[C@@H]3[C@H](C(N)=O)[C@H]4C=C[C@@H]3C4)n2)cn1.CCn1cc(Nc2nc(C)c(Cl)c(N[C@H]3[C@@H](C(N)=O)[C@@H]4C=C[C@H]3C4)n2)cn1 (mixture of isomers) [Example 126, (1S,2S,3R,4R)-3-({5-chloro-2-[(1-ethyl-1H-pyrazol-4-yl)amino]-6-methylpyrimidin-4-yl}amino)bicyclo[2.2.1]hept-5-ene-2-carboxamide and (1R,2R,3S,4S)-3-({5-chloro-2-[(1-ethyl-1H-pyrazol-4-yl)amino]-6-methylpyrimidin-4-yl}amino)bicyclo[2.2.1]hept-5-ene-2-carboxamide]"
–,–,–,100 to 1000,"CCn1cc(Nc2ncc(Cl)c(Nc3ccc4[nH]ncc4c3)n2)cn1 [Example 176, 5-chloro-N^2-(1-ethyl-1H-pyrazol-4-yl)-N^4-(1H-indazol-5-yl)pyrimidine-2,4-diamine]"

Molecule,Ki (KDR [1]) [nM],Ki (Aurora A) [nM],Ki (Aurora B) [nM],IC50 (KDR [2]) [nM]
"Cn1cc(Nc2ncc(Cl)c(N[C@@H]3[C@H](C(N)=O)[C@H]4C=C[C@@H]3C4)n2)cn1.Cn1cc(Nc2ncc(Cl)c(N[C@H]3[C@@H](C(N)=O)[C@@H]4C=C[C@H]3C4)n2)cn1 (mixture of isomers) [Example 27, (1S,2S,3R,4R)-3-({5-chloro-2-[(1-methyl-1H-pyrazol-4-yl)amino]pyrimidin-4-yl}amino)bicyclo[2.2.1]hept-5-ene-2-carboxamide and (1R,2R,3S,4S)-3-({5-chloro-2-[(1-methyl-1H-pyrazol-4-yl)amino]pyrimidin-4-yl}amino)bicyclo[2.2.1]hept-5-ene-2-carboxamide]",< 100,< 100,< 100,< 100
